The values that follow come from ChEMBL document CHEMBL1201862, “PubChem BioAssay data set” (2004).

SMILES strings stand for the structures. Calls of active or inactive are those of the source. Some results are limits rather than exact numbers.

The target in experiment [1] is Induced myeloid leukemia cell differentiation protein Mcl-1 (Homo sapiens, UniProt Q07820). It is filed as functional.
Another experiment addresses Large T antigen (Simian virus 40, UniProt P03070). It is filed as functional, Betapolyomavirus macacae.
In the next experiment the target is T1, Aminopeptidase N (Plasmodium falciparum FcB1/Columbia, UniProt O96935).
T1 sequence (O96935 whole entry): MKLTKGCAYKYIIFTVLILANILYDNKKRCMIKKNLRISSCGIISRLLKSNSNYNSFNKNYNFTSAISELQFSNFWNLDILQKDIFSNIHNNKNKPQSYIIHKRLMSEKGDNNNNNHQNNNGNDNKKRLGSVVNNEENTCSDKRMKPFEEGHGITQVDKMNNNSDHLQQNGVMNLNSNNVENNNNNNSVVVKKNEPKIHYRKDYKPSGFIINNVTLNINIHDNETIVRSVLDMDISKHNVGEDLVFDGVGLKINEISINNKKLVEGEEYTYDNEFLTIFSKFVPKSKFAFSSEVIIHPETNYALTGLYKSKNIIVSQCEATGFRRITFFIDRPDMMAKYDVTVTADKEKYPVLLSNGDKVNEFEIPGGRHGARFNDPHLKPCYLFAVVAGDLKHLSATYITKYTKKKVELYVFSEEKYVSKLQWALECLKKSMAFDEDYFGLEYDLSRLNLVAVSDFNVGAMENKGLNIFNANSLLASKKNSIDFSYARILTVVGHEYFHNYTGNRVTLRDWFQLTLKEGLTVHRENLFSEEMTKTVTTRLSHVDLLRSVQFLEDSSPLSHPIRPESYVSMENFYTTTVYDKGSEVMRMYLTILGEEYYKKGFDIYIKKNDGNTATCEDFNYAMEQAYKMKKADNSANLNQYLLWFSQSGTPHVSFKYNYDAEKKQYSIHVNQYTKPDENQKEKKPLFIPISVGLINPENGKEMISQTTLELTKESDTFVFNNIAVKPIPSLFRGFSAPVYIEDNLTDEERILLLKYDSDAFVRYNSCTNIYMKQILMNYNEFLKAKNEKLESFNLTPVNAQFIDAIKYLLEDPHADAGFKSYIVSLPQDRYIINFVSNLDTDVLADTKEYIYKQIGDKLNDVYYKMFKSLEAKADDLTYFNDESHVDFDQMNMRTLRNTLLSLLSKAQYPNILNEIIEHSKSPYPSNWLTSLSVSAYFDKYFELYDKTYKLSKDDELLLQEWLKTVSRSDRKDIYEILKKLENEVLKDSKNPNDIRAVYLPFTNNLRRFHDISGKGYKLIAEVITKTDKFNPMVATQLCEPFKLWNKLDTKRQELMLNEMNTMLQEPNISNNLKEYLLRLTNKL
As to the kind of experiment: malaria alanyl aminopeptidase activity blockers – biochemical, fluorogenic H-Leu-NHMec substrate, 1536-well (AID 1445). Further details: species or system Plasmodium falciparum 3D7, 3D7.

The target in experiment [2] is T2, Trace amine-associated receptor 1 (Homo sapiens, UniProt Q96RJ0).
T2 sequence (Q96RJ0 whole entry): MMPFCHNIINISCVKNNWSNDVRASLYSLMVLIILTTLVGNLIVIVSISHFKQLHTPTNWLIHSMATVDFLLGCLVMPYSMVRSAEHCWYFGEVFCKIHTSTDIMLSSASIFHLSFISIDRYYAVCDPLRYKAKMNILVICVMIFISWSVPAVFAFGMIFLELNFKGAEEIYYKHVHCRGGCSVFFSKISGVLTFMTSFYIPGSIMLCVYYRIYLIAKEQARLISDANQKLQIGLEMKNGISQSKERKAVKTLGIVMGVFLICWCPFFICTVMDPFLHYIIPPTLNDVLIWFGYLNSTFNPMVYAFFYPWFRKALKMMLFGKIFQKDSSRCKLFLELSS
As to the kind of experiment: Counterscreen for agonists of the human trace amine associated receptor 1 (hTAAR1): Fluorescence-based cell-based high throughput dose response assay to identify hTAAR1 agonist that also desensitize TAAR1 receptor response. Format: functional.

Experiment [3] is described as follows: cells. It is filed as functional, cell-based.
The nature of experiment [4]: cells. It is filed as functional, cell-based. The source holds these as a separate data set.
Experiment [5] addresses T2, Trace amine-associated receptor 1. Briefly: Fluorescence-based cell-based high throughput dose response assay to identify agonists of the human trace amine associated receptor 1 (TAAR1). Format: functional.
Another experiment addresses T3, Estrogen receptor (Homo sapiens, UniProt P03372).
T3 sequence (P03372 whole entry): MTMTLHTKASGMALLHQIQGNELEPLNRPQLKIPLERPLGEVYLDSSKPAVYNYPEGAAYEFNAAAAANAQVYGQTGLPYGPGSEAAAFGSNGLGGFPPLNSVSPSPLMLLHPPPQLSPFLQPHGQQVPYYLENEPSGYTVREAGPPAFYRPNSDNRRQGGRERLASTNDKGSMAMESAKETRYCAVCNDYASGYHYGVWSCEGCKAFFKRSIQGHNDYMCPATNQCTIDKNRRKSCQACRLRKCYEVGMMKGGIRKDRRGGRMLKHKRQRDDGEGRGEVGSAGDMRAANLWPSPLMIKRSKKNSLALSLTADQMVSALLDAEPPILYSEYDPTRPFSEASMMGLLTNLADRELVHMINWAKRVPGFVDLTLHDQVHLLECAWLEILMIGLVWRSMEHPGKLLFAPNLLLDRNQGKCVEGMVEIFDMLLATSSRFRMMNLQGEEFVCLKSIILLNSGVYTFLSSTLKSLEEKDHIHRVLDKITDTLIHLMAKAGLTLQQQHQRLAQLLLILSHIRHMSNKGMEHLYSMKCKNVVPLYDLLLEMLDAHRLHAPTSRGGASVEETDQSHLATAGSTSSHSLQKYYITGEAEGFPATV

A short description of experiment [6]: fluconazole-exposed Candida albicans growth modulators – fluorescence, retest, confirmation (AID 2467). It is filed as functional, cell-based.
The nature of experiment [7]: NIH-3T3 fibroblast cytotoxicity, dose response, cytotoxicity control, cell-based, fluorescence, Alamar Blue, secondary assay (AID 2327).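 Further: NIH-3T3 mouse fibroblasts cultured with fluconazole at 8 µg/mL.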 It is filed as functional.
Experiment [8] is described as follows: viability of uninfected HEp-2 cells – cell-based, HTS, cytotoxicity control for RSV inhibitor project, dose response (AID 2410). Format: functional. The settings on record: human respiratory syncytial virus.
Experiment [9] in a line: cells.
The target in experiment [10] is SWI/SNF-related matrix-associated actin-dependent regulator of chromatin subfamily A member 2 (Homo sapiens, UniProt P51531). As to the kind of experiment: Luminescence-based cell-based high throughput dose response assay to identify activators of the function of SWI/SNF related, matrix associated, actin dependent regulator of chromatin, subfamily a, member 2 (SMARCA2, BRM). It is filed as functional.
SWI/SNF-related matrix-associated actin-dependent regulator of chromatin subfamily A member 2, sequence (P51531 whole entry): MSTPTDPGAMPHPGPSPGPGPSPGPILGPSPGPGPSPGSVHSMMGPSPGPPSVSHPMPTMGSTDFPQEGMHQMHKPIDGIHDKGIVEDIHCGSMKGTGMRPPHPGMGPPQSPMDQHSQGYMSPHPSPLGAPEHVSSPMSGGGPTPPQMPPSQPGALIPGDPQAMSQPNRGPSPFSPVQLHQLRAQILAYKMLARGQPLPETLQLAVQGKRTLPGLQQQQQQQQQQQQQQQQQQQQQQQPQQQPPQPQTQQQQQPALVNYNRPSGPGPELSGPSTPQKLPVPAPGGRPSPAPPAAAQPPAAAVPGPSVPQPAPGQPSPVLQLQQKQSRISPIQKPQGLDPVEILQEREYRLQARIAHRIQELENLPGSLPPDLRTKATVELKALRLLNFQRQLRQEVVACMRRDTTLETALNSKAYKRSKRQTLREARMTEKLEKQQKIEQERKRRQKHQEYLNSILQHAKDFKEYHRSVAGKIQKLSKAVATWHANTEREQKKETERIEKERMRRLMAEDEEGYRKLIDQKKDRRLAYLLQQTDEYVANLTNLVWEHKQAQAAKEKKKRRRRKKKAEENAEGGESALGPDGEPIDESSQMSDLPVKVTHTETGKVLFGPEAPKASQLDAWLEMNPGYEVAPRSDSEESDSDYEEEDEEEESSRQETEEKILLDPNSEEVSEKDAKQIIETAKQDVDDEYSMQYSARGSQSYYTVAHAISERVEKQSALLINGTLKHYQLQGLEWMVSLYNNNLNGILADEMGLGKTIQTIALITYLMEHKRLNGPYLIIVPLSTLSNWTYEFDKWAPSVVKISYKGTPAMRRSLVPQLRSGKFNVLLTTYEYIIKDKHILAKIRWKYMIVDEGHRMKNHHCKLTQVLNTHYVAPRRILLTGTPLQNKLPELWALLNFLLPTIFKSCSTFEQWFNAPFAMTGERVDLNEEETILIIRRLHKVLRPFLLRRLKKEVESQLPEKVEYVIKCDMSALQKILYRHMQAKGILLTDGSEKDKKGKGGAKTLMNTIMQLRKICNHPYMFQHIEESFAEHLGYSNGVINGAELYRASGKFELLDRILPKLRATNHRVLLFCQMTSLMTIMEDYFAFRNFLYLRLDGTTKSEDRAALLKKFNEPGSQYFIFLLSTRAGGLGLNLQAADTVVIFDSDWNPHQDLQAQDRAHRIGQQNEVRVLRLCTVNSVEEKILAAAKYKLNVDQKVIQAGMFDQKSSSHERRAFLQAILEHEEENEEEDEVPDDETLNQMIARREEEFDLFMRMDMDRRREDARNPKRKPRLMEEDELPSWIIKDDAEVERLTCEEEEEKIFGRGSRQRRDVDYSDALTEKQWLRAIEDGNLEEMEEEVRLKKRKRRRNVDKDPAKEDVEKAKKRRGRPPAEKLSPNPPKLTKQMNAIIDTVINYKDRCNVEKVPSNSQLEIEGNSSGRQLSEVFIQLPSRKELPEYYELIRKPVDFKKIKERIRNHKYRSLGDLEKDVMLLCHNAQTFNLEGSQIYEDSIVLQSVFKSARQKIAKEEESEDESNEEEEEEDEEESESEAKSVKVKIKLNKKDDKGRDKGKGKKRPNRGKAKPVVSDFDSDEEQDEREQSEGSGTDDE

A short description of experiment [11]: Counterscreen for activators of the function of SWI/SNF related, matrix associated, actin dependent regulator of chromatin, subfamily a, member 2 (SMARCA2, BRM): Luminescence-based cell-based high throughput dose response assay to identify non-selective compounds using the VP16 reporter assay. Format: functional.
In experiment [12] the target is T4, Fatty acid synthase (Homo sapiens, UniProt P49327). Briefly: inhibition of human FAS-TE enzyme activity – biochemical, endpoint fluorescence intensity, uHTS hits, dose response (AID 624327).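 Further: fluorescence from hydrolysis of an O-methyl fluorescein acyl ester substrate by the enzyme.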 Format: functional.
T4 sequence (P49327 whole entry): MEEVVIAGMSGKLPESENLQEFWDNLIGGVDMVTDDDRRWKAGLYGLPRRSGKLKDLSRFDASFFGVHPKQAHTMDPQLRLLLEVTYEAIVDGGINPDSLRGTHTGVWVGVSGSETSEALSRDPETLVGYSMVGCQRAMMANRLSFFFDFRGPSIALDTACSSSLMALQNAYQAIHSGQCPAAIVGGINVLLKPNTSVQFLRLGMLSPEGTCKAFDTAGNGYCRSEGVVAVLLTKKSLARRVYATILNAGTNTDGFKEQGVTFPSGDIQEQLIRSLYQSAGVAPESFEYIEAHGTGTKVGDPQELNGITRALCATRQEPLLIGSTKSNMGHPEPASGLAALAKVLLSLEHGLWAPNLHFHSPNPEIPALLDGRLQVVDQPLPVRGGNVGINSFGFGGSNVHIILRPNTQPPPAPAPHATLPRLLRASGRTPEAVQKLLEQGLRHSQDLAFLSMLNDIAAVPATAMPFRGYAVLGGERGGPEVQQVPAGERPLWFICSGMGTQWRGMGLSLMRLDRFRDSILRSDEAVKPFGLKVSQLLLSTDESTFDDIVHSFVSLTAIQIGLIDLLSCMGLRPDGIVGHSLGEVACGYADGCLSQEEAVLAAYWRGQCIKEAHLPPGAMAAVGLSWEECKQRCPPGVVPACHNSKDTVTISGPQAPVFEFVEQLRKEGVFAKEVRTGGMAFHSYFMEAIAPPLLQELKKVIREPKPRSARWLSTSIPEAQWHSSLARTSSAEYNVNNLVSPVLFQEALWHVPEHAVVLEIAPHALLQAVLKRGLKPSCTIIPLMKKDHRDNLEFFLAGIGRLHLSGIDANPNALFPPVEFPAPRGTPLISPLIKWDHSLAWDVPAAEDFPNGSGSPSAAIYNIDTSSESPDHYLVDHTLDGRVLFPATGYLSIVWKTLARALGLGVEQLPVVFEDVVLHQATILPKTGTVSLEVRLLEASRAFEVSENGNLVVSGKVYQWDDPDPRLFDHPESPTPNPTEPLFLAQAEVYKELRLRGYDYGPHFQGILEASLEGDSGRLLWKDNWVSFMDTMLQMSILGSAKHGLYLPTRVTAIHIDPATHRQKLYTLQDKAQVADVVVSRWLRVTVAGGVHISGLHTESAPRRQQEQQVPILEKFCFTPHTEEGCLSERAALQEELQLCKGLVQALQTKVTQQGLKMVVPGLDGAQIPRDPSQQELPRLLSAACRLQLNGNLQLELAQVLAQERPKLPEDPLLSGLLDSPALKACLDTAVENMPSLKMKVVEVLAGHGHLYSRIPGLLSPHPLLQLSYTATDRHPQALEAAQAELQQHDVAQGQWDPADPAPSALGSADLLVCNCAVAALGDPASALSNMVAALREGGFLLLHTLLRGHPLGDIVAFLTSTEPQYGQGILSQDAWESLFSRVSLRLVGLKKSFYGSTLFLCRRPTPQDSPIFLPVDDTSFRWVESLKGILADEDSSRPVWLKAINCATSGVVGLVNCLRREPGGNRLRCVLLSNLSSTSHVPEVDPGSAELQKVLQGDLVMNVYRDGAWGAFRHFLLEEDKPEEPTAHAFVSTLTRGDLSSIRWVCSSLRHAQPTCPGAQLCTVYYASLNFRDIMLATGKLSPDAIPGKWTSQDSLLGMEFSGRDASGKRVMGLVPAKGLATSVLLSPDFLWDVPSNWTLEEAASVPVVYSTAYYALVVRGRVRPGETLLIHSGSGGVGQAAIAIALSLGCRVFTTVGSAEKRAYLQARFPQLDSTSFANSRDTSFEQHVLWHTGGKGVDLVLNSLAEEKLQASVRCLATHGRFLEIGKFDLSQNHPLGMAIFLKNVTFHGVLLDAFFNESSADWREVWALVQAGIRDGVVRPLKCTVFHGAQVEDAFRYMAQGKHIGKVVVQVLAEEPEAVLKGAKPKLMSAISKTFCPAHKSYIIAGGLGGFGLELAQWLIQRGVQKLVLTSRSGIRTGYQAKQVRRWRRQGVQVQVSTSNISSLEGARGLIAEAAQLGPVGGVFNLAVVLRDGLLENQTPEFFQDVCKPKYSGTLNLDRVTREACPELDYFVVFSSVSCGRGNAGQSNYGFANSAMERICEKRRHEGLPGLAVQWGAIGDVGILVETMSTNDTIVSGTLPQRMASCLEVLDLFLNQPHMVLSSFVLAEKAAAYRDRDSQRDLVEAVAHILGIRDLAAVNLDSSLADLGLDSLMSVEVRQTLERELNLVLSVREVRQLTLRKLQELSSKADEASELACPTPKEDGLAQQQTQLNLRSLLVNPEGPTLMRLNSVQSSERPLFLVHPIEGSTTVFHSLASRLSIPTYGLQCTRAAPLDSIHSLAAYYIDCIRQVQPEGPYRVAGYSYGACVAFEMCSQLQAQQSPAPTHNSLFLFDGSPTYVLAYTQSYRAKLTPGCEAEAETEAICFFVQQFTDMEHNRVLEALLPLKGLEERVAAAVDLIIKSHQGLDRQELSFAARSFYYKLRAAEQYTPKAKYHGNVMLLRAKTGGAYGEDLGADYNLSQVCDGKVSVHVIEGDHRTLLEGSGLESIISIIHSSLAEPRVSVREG
Experiment [13] has as its target T4, Fatty acid synthase. As to the kind of experiment: inhibition of human FAS-TE enzyme activity – biochemical, kinetic fluorescence intensity, dose response (AID 624326).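 Further: rate of fluorescence rise from hydrolysis of a fluorogenic O-methyl fluorescein ester substrate.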 It is filed as functional.
Another experiment addresses Cytochrome P450 2C19 (Homo sapiens, UniProt P33261). As to the kind of experiment: qHTS Assay for Inhibitors and Substrates of Cytochrome P450 2C19. [Related pubchem assays: 410 ]. Format: ADME. As to conditions: read-out: Potency.
Experiment [14] can be described thus: alpha-synuclein stem-loop luciferase translation blockers – H4 neuroglioma cells, luminescence, confirmation (AID 1988). Format: functional, cell-based.
Experiment [15] is described as follows: Luminescence Cell-Based Dose Response HTS to Identify Inhibitors of 5'UTR Stem-Loop Driven Prion Protein mRNA Translation in H4 Neuroglioblastoma Cells. [Related pubchem assays: 1827 (Project Summary), 1813 (Primary HTS)]. Format: functional.
Experiment [16] can be described thus: luciferase reporter signal suppression in cells – H4 neuroglioma cells, luminescence, dose response (AID 1990). Format: functional, cell-based.
The next experiment has as its target Paired box protein Pax-8 (Homo sapiens, UniProt Q06710). Briefly: PAX8 transcriptional activity inhibition in RMG-I – RMG-I cells, luciferase, cherry-pick, dose response (AID 687027).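 Further: luciferase reporter driven by Pax8 target thyroperoxidase promoter measured by SteadyGlo luminescence.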 Format: functional, cell-based.

Induced myeloid leukemia cell differentiation protein Mcl-1, sequence (Q07820 whole entry): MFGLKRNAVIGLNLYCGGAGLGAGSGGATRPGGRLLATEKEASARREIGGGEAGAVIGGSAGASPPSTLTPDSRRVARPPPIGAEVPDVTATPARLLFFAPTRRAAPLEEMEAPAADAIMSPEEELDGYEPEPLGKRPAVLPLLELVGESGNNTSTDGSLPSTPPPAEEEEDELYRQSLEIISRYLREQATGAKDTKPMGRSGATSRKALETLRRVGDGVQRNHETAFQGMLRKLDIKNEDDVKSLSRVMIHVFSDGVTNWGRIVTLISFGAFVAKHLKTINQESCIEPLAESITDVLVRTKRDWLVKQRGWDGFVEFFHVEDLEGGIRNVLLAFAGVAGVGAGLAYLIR
Cytochrome P450 2C19, sequence (P33261 whole entry): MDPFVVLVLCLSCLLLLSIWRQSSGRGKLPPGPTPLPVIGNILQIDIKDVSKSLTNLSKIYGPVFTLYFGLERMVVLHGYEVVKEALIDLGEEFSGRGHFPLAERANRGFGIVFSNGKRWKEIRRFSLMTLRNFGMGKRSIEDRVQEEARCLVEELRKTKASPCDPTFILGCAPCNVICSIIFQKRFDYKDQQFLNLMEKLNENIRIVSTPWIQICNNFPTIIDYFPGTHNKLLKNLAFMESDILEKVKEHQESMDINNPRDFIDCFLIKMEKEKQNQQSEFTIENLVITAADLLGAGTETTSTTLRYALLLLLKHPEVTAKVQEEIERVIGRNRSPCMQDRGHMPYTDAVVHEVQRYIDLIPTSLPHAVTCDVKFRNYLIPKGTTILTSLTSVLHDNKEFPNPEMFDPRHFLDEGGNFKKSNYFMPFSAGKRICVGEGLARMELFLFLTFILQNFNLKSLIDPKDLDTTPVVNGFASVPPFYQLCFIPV

As to `COc1ccc(CN2C(=O)NC(=O)/C(=C/c3ccc([N+](=O)[O-])o3)C2=O)cc1`, the IC50 in experiment [1] is 3.22 µM (active); on Large T antigen, 71.7 µM (active).
`O=C(NCc1ccc2c(c1)OCO2)C1CCN(S(=O)(=O)c2cccs2)CC1`: on Aminopeptidase N, the IC50 was 26.7 µM (active).
Turning to `COC(=O)c1c(-c2ccc(C(C)(C)C)cc2)csc1NC(=O)C1C2CCC(O2)C1C(=O)O` (stereo not drawn), the IC50 on Aminopeptidase N is 79.5 µM (active).
For the compound `O=C(CNCCc1ccccc1)N1CCc2ccccc2C1`, the IC50 in [2] is 5.52 µM (active); in the experiment “cells [3]”, > 29.9 µM (inactive). For the same compound, the results for the EC50 (in the experiment “cells [4]”; in [5]) were > 29.9 µM (inactive) and 1.2 µM (active), respectively.
For `CCn1c(SCC(=O)c2ccc(CNC(C)=O)o2)nnc1-c1cccs1`, the IC50 on Estrogen receptor was 42.7 µM (not active).
On to `CC(C)c1ccc2oc(-c3ccc(NC(=O)c4nc[nH]n4)cc3)nc2c1`, for which the EC50 was 0.04 µM (active) in experiment [6] and > 160 µM (inactive) in experiment [7]. In addition, the CC50 in experiment [8] was > 50 µM (active). In “cells [9]”, the IC50 is 42.2 µM (active).
Take `COCCN1CCN(c2c(C)c(C)nc3cc(-c4cccc(OC)c4)nn23)CC1`: the EC50 in [10] and in [11] was > 91.1 µM (inactive) in each case.
As to `CC(=O)OC1CC(C)(C)N(OC(=O)c2ccc(N)cc2)C(C)(C)C1`, the IC50 on Estrogen receptor was 26.3 µM (active).
On to `COc1ccc2cc3cc(C(=O)N4CCCCC4C)oc3nc2c1` (stereo not drawn), for which the half-inhibitory concentration (IC50) at Fatty acid synthase [12] was 2.81 µM (active); on Fatty acid synthase [13] it was 2.52 µM (active); in “cells [9]”, 35.1 µM (active). In experiment [8], the CC50 was 42.4 µM (active).
Consider `CNC(=S)Nc1sc2c(c1C(=O)OC)CCC2`, for which, in [1], the IC50 was 1.48 µM (active).
On to `CC12CC3OS(=O)OC3CC3C4C(C(OCc5ccccc5)C31)C42` (stereo not drawn), for which the AC50 at Cytochrome P450 2C19 was 0.251 µM (inconclusive).
`CN(C)CCN(C(=O)/C=C/c1cccs1)c1nc2c(F)cc(F)cc2s1`: the concentration giving a half-maximal response (EC50) in experiment [14] was 8.47 µM (active); in [15], 10.4 µM (active); in experiment [16], 12.5 µM (active); in [10] it was > 91.1 µM (inactive); in [11], > 91.1 µM (inactive). Further, at Paired box protein Pax-8, the AC50 is 8.86 µM (active).
As for `O=C(O)CCc1ccc(-c2cccs2)n1CCc1ccccc1`, the IC50 in [2] was 5.93 µM (active); in the experiment “cells [3]”, > 29.9 µM (inactive). For the same compound, the EC50 in the experiment “cells [4]” was > 29.9 µM (inactive); in experiment [5] it was 0.62 µM (active).
`O=C(CN1CCC(NC(=O)c2ccccc2)CC1)NCc1ccccc1F`: the IC50 on Aminopeptidase N is 39.3 µM (active).
Take `CCOC(=O)c1c(NC(=O)CSc2nnc(CNC(=O)c3ccco3)n2C)sc2c1CCC2`: the IC50 at Estrogen receptor is on record as > 50 µM (not active).
`COCCN(C(=O)C(C)C)c1nnc(-c2cccc(C)c2)s1`: in [8], the CC50 was > 50 µM (active). In addition, the half-maximal inhibitory concentration (IC50) in “cells [9]” is 37.4 µM (active).
In the case of `Nc1cccc(C2=Nc3cccc4cccc(c34)N2)c1`, in experiment [1], the IC50 is 3 µM (active).
With `O=C(O)c1cccc(Nc2nc(-c3cccnc3)nc3ccccc23)c1`, the IC50 on Aminopeptidase N was 79.2 µM (active).
For `Cc1nnn(-c2nonc2N)c1C(=O)NNC(=O)c1ccc(Cl)c(Cl)c1`, the IC50 (in [2]; in “cells [3]”) was > 29.9 µM (inactive) throughout. Also, the EC50 in “cells [4]” was > 29.9 µM (inactive); in experiment [5], 5.05 µM (active).
With `COC(=O)N/N=C(\C)c1ccccc1Br`, the EC50 in experiment [10] and in experiment [11] was > 91.1 µM (inactive) each time.
On to `O=C(N[C@H](C(=O)N1CCC[C@H]1C(=O)NCCc1ccccc1Cl)c1ccccc1)c1ccccc1`, for which the IC50 is 5.99 µM (active) in experiment [2] and > 29.9 µM (inactive) in “cells [3]”. Also, the EC50 was > 29.9 µM (inactive) in the experiment “cells [4]” and 3.78 µM (active) in experiment [5].
